System: hyaluronidase
Test: Hyaluronic Acid Viscometry Assay (degradation of HA by hyaluronidase)
Assay type: biochemical
Source text: The time for the sample to run through the viscometer was proportional to the viscosity of HA in the sample, which, in turn, was proportional to the molecular weight of the HA. As the enzyme (hyaluronidase) breaks down HA, the molecular weight of the polymer is reduced, the viscosity of the solution drops, and the solution runs through the viscometer more rapidly. Accordingly, shorter run times indicated lower molecular weights of HA (i.e., more breakdown of the HA by hyaluronidase), whereas longer times indicated higher molecular weights of HA (i.e., less breakdown of the HA by hyaluronidase).
0.07% HA solutions were prepared as follows: […] and […] pH 5.5 phosphate buffer (1 M) were combined in a scintillation vial. […] The solutions were allowed to dissolve overnight at 37° C. The pH's were checked and adjusted to 6.0. The viscosity of the solutions was analyzed by measuring the run time through an Ubbelohde PC1 viscometer. 50 μl of hyaluronidase (4.2 mg in 620 ul of water) was added per vial (final concentration approximately 6 units/ml) and incubated overnight with shaking. A viscometer reading was recorded for each solution after overnight incubation.

[1] = 10 mg/ml, without enzyme (Example 4)

Compound	Time (minutes) for sample to run through viscometer (0 mg/ml (so in the source), with enzyme (Example 4)) [min]	Degradation of HA (% viscosity relative to control t = 0) (10 mg/ml, with hyaluronidase (Example 2)) [%]	Time (minutes) for sample to run through viscometer [1] [min]	Effect on hyaluronidase (viscosity of HA solution versus enzyme control) (Example 2, concentrations of Table 2)	Effect on hyaluronidase (viscosity of HA solution versus enzyme control) (Example 4, 10 mg/ml)	Time (minutes) for sample to run through viscometer (10 mg/ml, with enzyme (Example 4)) [min]
CC(O)CO (centres unmarked) [Propylene glycol]	5	65	5.85	inhibit the action of hyaluronidase	inhibit the action of hyaluronidase	–
SPAN 80	–	–	5.5	–	inhibit the action of hyaluronidase	4.36
